Data reported in ChEMBL document CHEMBL6083291, “Discovery of Thiochroman Derivatives as Potent, Oral Selective Estrogen Receptor Degraders and Antagonists for the Treatment of Endocrine-Resistant Breast Cancer” (J Med Chem, 2024).

What was measured:
[1] = tested on: CAMA-1; assay: Antiproliferative activity against human CAMA-1 cells assessed as reduction in cell viability
[2] = tested on: BT-474; assay: Antiproliferative activity against human BT-474 cells assessed as reduction in cell viability
[3] = tested on: T47D; assay: Antiproliferative activity against human T47D cells assessed as reduction in cell viability
[4] = tested on: MCF7; assay: Antiproliferative activity against human MCF7 cells assessed as reduction in cell viability incubated for 6 days by CellTiter-Glo reagent based luminescence analysis
[5] = tested on: MDA-MB-361; assay: Antiproliferative activity against human MDA-MB-361 cells assessed as reduction in cell viability
[6] = biological target: Voltage-gated inwardly rectifying potassium channel KCNH2 (Homo sapiens, UniProt Q12809); assay: Inhibition of hERG expressed in CHO cells assessed as inhibition of channel current by automated Qpatch clamp analysis
[7] = biological target: T1, Estrogen receptor (Homo sapiens, UniProt P03372); assay: Induction of ER-alpha degradation in human MCF7 cells incubated for 24 hrs by In-Cell Western blot analysis; assay type: cell-based
T1 sequence (P03372 whole entry): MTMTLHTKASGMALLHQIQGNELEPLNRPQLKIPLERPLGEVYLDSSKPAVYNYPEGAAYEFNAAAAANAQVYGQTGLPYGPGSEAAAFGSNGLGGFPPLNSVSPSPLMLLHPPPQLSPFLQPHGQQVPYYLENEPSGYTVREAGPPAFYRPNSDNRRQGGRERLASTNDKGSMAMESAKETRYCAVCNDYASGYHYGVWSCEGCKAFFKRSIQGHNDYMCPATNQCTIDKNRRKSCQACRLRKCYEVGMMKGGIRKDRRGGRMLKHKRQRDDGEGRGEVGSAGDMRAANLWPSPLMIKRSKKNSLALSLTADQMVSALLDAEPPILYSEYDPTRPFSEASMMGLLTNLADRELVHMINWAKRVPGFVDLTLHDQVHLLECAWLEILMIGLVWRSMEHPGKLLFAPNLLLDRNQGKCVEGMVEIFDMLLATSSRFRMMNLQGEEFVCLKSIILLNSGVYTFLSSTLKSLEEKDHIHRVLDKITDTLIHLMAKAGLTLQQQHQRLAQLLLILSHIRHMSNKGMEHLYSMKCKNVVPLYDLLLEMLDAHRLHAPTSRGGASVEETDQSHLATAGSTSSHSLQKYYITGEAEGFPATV

[8] = Toxicity in Sprague-Dawley rat assessed as thickened endometrium in uterus at 60 mg/kg, po qd for 3 days by Hematoxylin-Eosin staining based analysis; assay type: organism-based; conditions: in vivo, 72 h, time 3 day
[9] = Estrogenic like activity in Sprague-Dawley rat assessed as increase in ratio of uterine wet weight to body weight at 60 mg/kg, po qd for 3 days relative to control; assay type: toxicity, organism-based; conditions: in vivo, 72 h, time 3 day
[10] = Antagonist activity at ER-alpha Y537S mutant (unknown origin) expressed in human MCF7 cells assessed as inhibition of ER-alpha transcription by immunofluorescence assay
[11] = tested on: MCF7; assay: Antiproliferative activity against human MCF7 cells harboring ER-alpha Y537S mutant assessed as inhibition of cell growth
[12] = Toxicity in Sprague-Dawley rat assessed as thickened endometrium in uterus at 0.1 mg/kg, po qd for 3 days by Hematoxylin-Eosin staining based analysis; assay type: organism-based; conditions: in vivo, 72 h, time 3 day
[13] = Estrogenic like activity in Sprague-Dawley rat assessed as increase in ratio of uterine wet weight to body weight at 0.1 mg/kg, po qd for 3 days relative to control; assay type: toxicity, organism-based; conditions: in vivo, 72 h, time 3 day
[14] = Antagonist activity at ER-alpha D538G mutant (unknown origin) expressed in human MCF7 cells assessed as inhibition of ER-alpha transcription by immunofluorescence assay
[15] = Antiproliferative activity against endocrine-resistant human MCF7 Tam1 cells assessed as inhibition of cell growth; conditions: Tamoxifen-resistant MCF7
[16] = biological target: T1, Estrogen receptor; assay type: cell-based, HEK293

Sequence of Voltage-gated inwardly rectifying potassium channel KCNH2 (Q12809 whole entry): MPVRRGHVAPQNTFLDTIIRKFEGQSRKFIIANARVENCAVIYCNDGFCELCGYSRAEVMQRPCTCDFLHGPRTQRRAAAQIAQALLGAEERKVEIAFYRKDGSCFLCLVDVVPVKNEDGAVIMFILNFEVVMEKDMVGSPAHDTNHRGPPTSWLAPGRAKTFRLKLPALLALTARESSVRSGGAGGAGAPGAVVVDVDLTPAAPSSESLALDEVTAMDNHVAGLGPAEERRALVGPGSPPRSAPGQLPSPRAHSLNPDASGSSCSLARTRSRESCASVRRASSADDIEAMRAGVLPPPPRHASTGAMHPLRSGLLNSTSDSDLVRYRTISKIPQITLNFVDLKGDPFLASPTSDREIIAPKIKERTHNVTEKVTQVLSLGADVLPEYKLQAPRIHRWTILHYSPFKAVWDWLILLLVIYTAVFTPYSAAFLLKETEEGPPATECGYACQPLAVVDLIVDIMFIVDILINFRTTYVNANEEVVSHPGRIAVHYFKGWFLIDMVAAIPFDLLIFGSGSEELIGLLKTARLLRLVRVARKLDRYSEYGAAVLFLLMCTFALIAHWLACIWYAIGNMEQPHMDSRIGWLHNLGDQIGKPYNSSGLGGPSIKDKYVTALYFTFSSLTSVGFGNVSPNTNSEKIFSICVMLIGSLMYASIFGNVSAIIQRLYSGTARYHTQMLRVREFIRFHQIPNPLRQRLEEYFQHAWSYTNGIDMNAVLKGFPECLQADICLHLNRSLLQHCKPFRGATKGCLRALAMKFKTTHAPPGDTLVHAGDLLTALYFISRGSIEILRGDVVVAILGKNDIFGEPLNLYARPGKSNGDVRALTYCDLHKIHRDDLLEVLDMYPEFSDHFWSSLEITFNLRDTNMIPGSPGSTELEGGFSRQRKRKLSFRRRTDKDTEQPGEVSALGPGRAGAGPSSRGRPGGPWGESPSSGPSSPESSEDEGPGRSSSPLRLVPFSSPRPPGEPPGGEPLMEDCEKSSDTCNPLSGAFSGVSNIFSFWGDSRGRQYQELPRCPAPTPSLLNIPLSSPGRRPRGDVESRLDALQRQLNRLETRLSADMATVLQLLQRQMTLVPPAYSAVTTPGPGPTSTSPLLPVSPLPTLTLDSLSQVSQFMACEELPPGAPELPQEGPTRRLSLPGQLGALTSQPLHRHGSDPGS

Oc1ccc2c(c1)SC[C@H](c1cc(F)c(F)cc1F)[C@@H]2c1ccc(OCCN2CC(CF)C2)cc1
IC50 [1]: 4 nM | IC50 [2]: 4 nM | IC50 [3]: 4 nM | IC50 ([4]; mcf7): 0.25 nM | IC50 [5]: ~15 nM

Oc1ccc2c(c1)SC[C@@H](c1cc(F)c(F)cc1F)[C@H]2c1ccc(OCCN2CC(CF)C2)cc1
IC50 ([4]; Homo sapiens, MCF7, 144 h): 714 nM

Oc1ccc2c(c1)OCC(c1ccc(F)cc1F)=C2c1ccc(OCCN2CC(CF)C2)cc1
IC50 ([4]; Homo sapiens, MCF7, 144 h): 58 nM

COc1cc(F)ccc1[C@@H]1CSc2cc(O)ccc2[C@@H]1c1ccc(OCCN2CC(CF)C2)cc1
IC50 ([4]; Homo sapiens, MCF7, 144 h): 25 nM

COc1ccc([C@H]2COc3cc(O)ccc3[C@H]2c2ccc(OCCN3CC(CF)C3)cc2)c(F)c1 (racemic)
IC50 ([4]; Homo sapiens, MCF7, 144 h): 0.87 nM | IC50 [6]: 3500 nM

Oc1ccc2c(c1)SC[C@H](c1ccc(F)cc1F)[C@@H]2c1ccc(OCCN2CC(CF)C2)cc1 (racemic)
IC50 ([4]; Homo sapiens, MCF7, 144 h): 0.6 nM | IC50 [6]: 13000 nM

Oc1ccc2c(c1)OC[C@H](C1CCOCC1)[C@@H]2c1ccc(OCCN2CC(CF)C2)cc1 (racemic)
IC50 ([4]; Homo sapiens, MCF7, 144 h): 1.6 nM

COc1cc(F)ccc1[C@H]1COc2cc(O)ccc2[C@H]1c1ccc(OCCN2CC(CF)C2)cc1 (racemic)
IC50 ([4]; Homo sapiens, MCF7, 144 h): 0.56 nM | IC50 [6]: 4800 nM

Oc1ccc2c(c1)OC[C@H](c1ccc(F)cc1F)[C@@H]2c1ccc(NC2CN(CCCF)C2)cc1 (racemic)
DC50 [7]: 1 nM | IC50 ([4]; Homo sapiens, MCF7, 144 h): 3.1 nM | IC50 [6]: 3600 nM

Oc1ccc2c(c1)OC[C@H](c1ccc(F)cc1F)[C@@H]2c1ccc(OCCN2CC(CF)C2)nc1 (racemic)
IC50 ([4]; Homo sapiens, MCF7, 144 h): 1.7 nM

COc1cc(F)ccc1[C@H]1CSc2cc(O)ccc2[C@H]1c1ccc(OCCN2CC(CF)C2)cc1 (racemic)
IC50 ([4]; mcf7): 0.6 nM | IC50 [6]: > 40000 nM

Oc1ccc2c(c1)SC[C@H](c1cc(F)c(F)cc1F)[C@@H]2c1ccc(OCCN2CC(CF)C2)cc1 (racemic)
IC50 ([4]; Homo sapiens, MCF7, 144 h): 0.4 nM

CC(=O)N1CCC([C@H]2COc3cc(O)ccc3[C@H]2c2ccc(OCCN3CC(CF)C3)cc2)CC1 (racemic)
DC50 [7]: 24 nM | IC50 ([4]; Homo sapiens, MCF7, 144 h): 9.5 nM

COc1cc(F)ccc1[C@H]1CSc2c(ccc3[nH]ncc23)[C@H]1c1ccc(OCCN2CC(CF)C2)cc1 (racemic)
DC50 [7]: 6.3 nM | IC50 ([4]; Homo sapiens, MCF7, 144 h): 7.4 nM

COc1cc(F)ccc1[C@H]1CSc2cc(O)ccc2[C@H]1c1ccc(OCCN2CC(CF)C2)c(F)c1 (racemic)
IC50 ([4]; Homo sapiens, MCF7, 144 h): 0.7 nM | IC50 [6]: > 40000 nM

Oc1ccc2c(c1)CCC[C@H](c1ccc(F)cc1F)[C@@H]2c1ccc(OCCN2CC(CF)C2)cc1 (racemic)
DC50 [7]: 22.7 nM | IC50 ([4]; Homo sapiens, MCF7, 144 h): 19 nM | IC50 [6]: > 40000 nM

Oc1ccc2c(c1)OC[C@H](c1ccc(F)cc1F)[C@@H]2c1ccc(OCCN2CC(CF)C2)cc1 (racemic)
IC50 ([4]; Homo sapiens, MCF7, 144 h): 1.2 nM

COc1ccc([C@H]2CSc3cc(O)ccc3[C@H]2c2ccc(OCCN3CC(CF)C3)cc2)c(F)c1 (racemic)
IC50 ([4]; Homo sapiens, MCF7, 144 h): 0.4 nM

Oc1ccc2c(c1)OC[C@H](c1ccc(Cl)cc1F)[C@@H]2c1ccc(OCCN2CC(CF)C2)cc1 (racemic)
IC50 ([4]; Homo sapiens, MCF7, 144 h): 4.2 nM

Oc1ccc2c(c1)OC[C@H](c1cc(F)c(F)cc1F)[C@@H]2c1ccc(OCCN2CC(CF)C2)cc1 (racemic)
IC50 [6]: 2800 nM

Oc1ccc2c(c1)OC[C@H](c1ccc(F)cc1F)[C@@H]2c1cc(F)c(OCCN2CC(CF)C2)c(F)c1 (racemic)
IC50 ([4]; Homo sapiens, MCF7, 144 h): 1.4 nM | IC50 [6]: 1900 nM

Oc1ccc2c(c1)OC[C@H](c1ccc(F)cc1F)[C@@H]2c1ccc(OCCN2CC(CF)C2)c(F)c1 (racemic)
IC50 [6]: 6400 nM

Oc1ccc2c(c1)OC[C@H](c1ccc(F)cc1F)[C@@H]2c1ccc(OC2CN(CCCF)C2)cc1 (racemic)
DC50 [7]: 2.8 nM | IC50 ([4]; Homo sapiens, MCF7, 144 h): 7.7 nM

Oc1ccc2c(c1)OC[C@H](c1ccc(F)cc1F)[C@@H]2c1ccc(NCCN2CC(CF)C2)cc1 (racemic)
DC50 [7]: 1.7 nM | IC50 ([4]; Homo sapiens, MCF7, 144 h): 9.3 nM

COc1cc(F)ccc1[C@H]1CSc2cc(O)ccc2[C@H]1c1ccc(NC2CN(CCCF)C2)cc1 (racemic)
IC50 ([4]; Homo sapiens, MCF7, 144 h): 0.9 nM | IC50 [6]: 22000 nM

Oc1ccc2c(c1)OCC[C@H](c1ccc(F)cc1F)[C@@H]2c1ccc(OCCN2CC(CF)C2)cc1 (racemic)
IC50 ([4]; Homo sapiens, MCF7, 144 h): 47 nM

COc1ccc([C@H]2COc3cc(O)ccc3[C@H]2c2ccc(OCCN3CC(CF)C3)cc2)cn1 (racemic)
IC50 ([4]; Homo sapiens, MCF7, 144 h): 0.86 nM

CC1(C)C[C@H](c2ccc(F)cc2F)[C@H](c2ccc(OCCN3CC(CF)C3)cc2)c2ccc(O)cc21 (racemic)
IC50 ([4]; Homo sapiens, MCF7, 144 h): 8.8 nM

Cn1cc([C@H]2COc3cc(O)ccc3[C@H]2c2ccc(OCCN3CC(CF)C3)cc2)cn1 (racemic)
DC50 [7]: 98 nM | IC50 ([4]; Homo sapiens, MCF7, 144 h): 38 nM

CS(=O)(=O)N1CCC([C@H]2COc3cc(O)ccc3[C@H]2c2ccc(OCCN3CC(CF)C3)cc2)CC1 (racemic)
DC50 [7]: 8.8 nM | IC50 ([4]; Homo sapiens, MCF7, 144 h): 6.2 nM

FCC1CN(CCOc2ccc([C@@H]3c4ccc5[nH]ncc5c4SC[C@@H]3c3cc(F)c(F)cc3F)cc2)C1 (racemic)
DC50 [7]: 6.6 nM | IC50 ([4]; Homo sapiens, MCF7, 144 h): 5.8 nM

Cc1cc(F)ccc1[C@H]1CSc2cc(O)ccc2[C@H]1c1ccc(OCCN2CC(CF)C2)cc1 (racemic)
IC50 ([4]; Homo sapiens, MCF7, 144 h): 0.8 nM

COc1cc(F)ccc1[C@H]1CSc2cc(C(=O)O)ccc2[C@H]1c1ccc(OCCN2CC(CF)C2)cc1 (racemic)
DC50 [7]: 9.6 nM | IC50 ([4]; Homo sapiens, MCF7, 144 h): 1.7 nM

Oc1ccc2c(c1)OC[C@H](c1ccc(F)cc1F)[C@@H]2c1ccc(OCCN2CC(CF)C2)cc1F (racemic)
IC50 [6]: 5400 nM

N#Cc1cc(F)ccc1[C@H]1COc2cc(O)ccc2[C@H]1c1ccc(OCCN2CC(CF)C2)cc1 (racemic)
IC50 ([4]; Homo sapiens, MCF7, 144 h): 4.9 nM

COc1cc([C@@H]2c3ccc(O)cc3OC[C@@H]2c2ccc(F)cc2F)ccc1OCCN1CC(CF)C1 (racemic)
DC50 [7]: 4.5 nM | IC50 ([4]; Homo sapiens, MCF7, 144 h): 4.8 nM

Oc1ccc2c(c1)OC[C@H](c1ccc(F)cc1F)[C@@H]2c1ccc(O[C@H]2CCN(CCCF)C2)cc1 (racemic)
IC50 ([4]; Homo sapiens, MCF7, 144 h): 7.7 nM

O=C(CN1CC(CF)C1)Nc1ccc([C@@H]2c3ccc(O)cc3OC[C@@H]2c2ccc(F)cc2F)cc1 (racemic)
IC50 ([4]; Homo sapiens, MCF7, 144 h): 243 nM

COc1cc(F)ccc1[C@H]1CS(=O)(=O)c2cc(O)ccc2[C@H]1c1ccc(OCCN2CC(CF)C2)cc1 (racemic)
IC50 ([4]; Homo sapiens, MCF7, 144 h): 1.6 nM | IC50 [6]: > 40000 nM

CC/C(=C(\c1ccc(O)cc1)c1ccc(OCCN(C)C)cc1)c1ccccc1 [AFIMOXIFENE]
Activity [8]: Toxic | fold change (FC) [9]: 2

O=C(O)c1ccc2c(c1)CCCC(c1ccc(Cl)cc1Cl)=C2c1ccc(O[C@H]2CCN(CCCF)C2)cc1 [AMCENESTRANT]
IC50 ([4]; Homo sapiens, MCF7, 144 h): 3.9 nM | IC50 [10]: 57.5 nM

C[C@@H]1Cc2c(ccc3[nH]ncc23)[C@@H](c2ccc(NC3CN(CCCF)C3)cn2)N1CC(F)(F)F [CAMIZESTRANT]
IC50 [11]: 21.2 nM | IC50 ([4]; Homo sapiens, MCF7, 144 h): 0.68 nM

C#C[C@]1(O)CC[C@H]2[C@@H]3CCc4cc(O)ccc4[C@H]3CC[C@@]21C [ETHINYL ESTRADIOL]
Activity [12]: Toxic | fold change (FC) [13]: 3

C[C@]12CC[C@@H]3c4ccc(O)cc4C[C@@H](CCCCCCCCC[S+]([O-])CCCC(F)(F)C(F)(F)F)[C@H]3[C@@H]1CC[C@@H]2O (some centres not stated) [FULVESTRANT]
IC50 [14]: 15.3 nM | IC50 [10]: 13.3 nM

C[C@@H]1Cc2c([nH]c3ccccc23)[C@@H](c2c(F)cc(NC3CN(CCCF)C3)cc2F)N1CC(F)(F)CO [GIREDESTRANT]
IC50 [15]: 1.22 nM | IC50 [11]: 6.77 nM | DC50 [7]: 0.3 nM | IC50 ([4]; Homo sapiens, MCF7, 144 h): 0.2 nM | IC50 [16]: 0.43 nM

O=C1CC[C@H](N2Cc3cc(N4CCN(CC5CCN(c6ccc([C@@H]7c8ccc(O)cc8CC[C@@H]7c7ccccc7)cc6)CC5)CC4)ccc3C2=O)C(=O)N1 [VEPDEGESTRANT]
IC50 [15]: 2.12 nM | IC50 [11]: 133 nM | IC50 ([4]; Homo sapiens, MCF7, 144 h): 2.7 nM
